Source: patent US12275731B2, “Azaindole inhibitors of wild-type and mutant forms of LRRK2” (DANA-FARBER CANCER INSTITUTE, INC., priority 2018, dated 2025)

Legend:
Assay in all cases: KinomeScan profiling
Format in all cases: binding
[1] = biological target: T1, ABL1(H396P)-phosphorylated (Homo sapiens, UniProt P00519, H396P); details: read-out: % control
T1 construct: purchased KinomeScan®
Method in brief: (§1)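 Normalised RLU (% control; DMSO 100%, positive control 0%) was measured for compounds dosed at 1 μM over 468 kinases, active cut-off <35%.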

ACVR1 = biological target: T2, ACVR1 (Homo sapiens, UniProt Q04771); details: ACVR1, 1 μM; read-out: % control
T2 construct: purchased KinomeScan®
T2 sequence (Q04771 21-509): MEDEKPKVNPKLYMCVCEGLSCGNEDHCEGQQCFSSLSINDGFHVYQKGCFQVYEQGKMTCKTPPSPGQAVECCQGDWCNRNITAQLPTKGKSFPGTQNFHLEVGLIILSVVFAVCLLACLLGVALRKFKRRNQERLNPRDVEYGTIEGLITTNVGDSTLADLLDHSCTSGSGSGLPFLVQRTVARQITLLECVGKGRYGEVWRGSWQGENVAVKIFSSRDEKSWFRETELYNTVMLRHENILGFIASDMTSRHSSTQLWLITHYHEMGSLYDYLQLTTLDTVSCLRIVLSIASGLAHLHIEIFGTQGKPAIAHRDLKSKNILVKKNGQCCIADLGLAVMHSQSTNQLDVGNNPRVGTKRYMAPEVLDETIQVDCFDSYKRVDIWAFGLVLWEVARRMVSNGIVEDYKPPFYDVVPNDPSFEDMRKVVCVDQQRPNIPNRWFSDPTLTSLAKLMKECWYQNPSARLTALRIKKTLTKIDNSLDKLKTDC
Method in brief: as §1

AKT2 = biological target: T3, AKT2 (Homo sapiens, UniProt P31751); details: AKT2, 1 μM; read-out: % control
T3 construct: purchased KinomeScan®
T3 sequence (P31751 whole entry): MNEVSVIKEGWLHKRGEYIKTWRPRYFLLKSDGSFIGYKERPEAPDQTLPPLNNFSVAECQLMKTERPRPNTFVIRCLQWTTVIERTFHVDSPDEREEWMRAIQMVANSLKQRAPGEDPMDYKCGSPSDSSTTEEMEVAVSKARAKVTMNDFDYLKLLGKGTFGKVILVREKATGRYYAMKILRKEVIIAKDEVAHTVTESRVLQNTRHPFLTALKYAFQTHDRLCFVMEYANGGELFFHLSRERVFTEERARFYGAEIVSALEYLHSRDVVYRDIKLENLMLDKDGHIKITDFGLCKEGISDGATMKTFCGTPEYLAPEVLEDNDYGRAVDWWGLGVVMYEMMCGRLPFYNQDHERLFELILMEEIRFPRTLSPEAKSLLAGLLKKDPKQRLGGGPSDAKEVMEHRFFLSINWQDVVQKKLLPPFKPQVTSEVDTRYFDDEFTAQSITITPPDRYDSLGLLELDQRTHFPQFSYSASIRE
Method in brief: as §1

CDK7 = CDK7 (Homo sapiens, UniProt P50613); details: CDK7, 1 μM; read-out: % control
Method in brief: as §1

CSNK1E = CSNK1E (Homo sapiens, UniProt P49674); details: read-out: % control
Sequence of CSNK1E (P49674 whole entry): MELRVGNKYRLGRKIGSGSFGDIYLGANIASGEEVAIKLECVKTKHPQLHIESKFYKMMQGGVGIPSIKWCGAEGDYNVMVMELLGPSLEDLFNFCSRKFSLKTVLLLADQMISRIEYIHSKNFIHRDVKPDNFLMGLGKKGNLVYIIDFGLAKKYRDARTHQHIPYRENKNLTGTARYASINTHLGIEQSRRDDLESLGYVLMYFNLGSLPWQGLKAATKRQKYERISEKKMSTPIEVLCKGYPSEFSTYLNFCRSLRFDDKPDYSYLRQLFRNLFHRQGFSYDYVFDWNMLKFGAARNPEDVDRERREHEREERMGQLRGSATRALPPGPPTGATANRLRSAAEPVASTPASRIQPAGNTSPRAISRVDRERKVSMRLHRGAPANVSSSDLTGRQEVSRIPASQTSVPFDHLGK
Method in brief: as §1

CSNK1G2 = CSNK1G2 (Homo sapiens, UniProt P78368); details: CSNK1G2, 1 μM; read-out: % control
Method in brief: as §1

[2] = biological target: EGFR(L747-E749del, A750P) (Homo sapiens, UniProt P00533, A750P/DEL747-749); details: read-out: % control
Sequence of EGFR(L747-E749del, A750P) (P00533 with tags, fused parts or gaps DEL747-749/A750P): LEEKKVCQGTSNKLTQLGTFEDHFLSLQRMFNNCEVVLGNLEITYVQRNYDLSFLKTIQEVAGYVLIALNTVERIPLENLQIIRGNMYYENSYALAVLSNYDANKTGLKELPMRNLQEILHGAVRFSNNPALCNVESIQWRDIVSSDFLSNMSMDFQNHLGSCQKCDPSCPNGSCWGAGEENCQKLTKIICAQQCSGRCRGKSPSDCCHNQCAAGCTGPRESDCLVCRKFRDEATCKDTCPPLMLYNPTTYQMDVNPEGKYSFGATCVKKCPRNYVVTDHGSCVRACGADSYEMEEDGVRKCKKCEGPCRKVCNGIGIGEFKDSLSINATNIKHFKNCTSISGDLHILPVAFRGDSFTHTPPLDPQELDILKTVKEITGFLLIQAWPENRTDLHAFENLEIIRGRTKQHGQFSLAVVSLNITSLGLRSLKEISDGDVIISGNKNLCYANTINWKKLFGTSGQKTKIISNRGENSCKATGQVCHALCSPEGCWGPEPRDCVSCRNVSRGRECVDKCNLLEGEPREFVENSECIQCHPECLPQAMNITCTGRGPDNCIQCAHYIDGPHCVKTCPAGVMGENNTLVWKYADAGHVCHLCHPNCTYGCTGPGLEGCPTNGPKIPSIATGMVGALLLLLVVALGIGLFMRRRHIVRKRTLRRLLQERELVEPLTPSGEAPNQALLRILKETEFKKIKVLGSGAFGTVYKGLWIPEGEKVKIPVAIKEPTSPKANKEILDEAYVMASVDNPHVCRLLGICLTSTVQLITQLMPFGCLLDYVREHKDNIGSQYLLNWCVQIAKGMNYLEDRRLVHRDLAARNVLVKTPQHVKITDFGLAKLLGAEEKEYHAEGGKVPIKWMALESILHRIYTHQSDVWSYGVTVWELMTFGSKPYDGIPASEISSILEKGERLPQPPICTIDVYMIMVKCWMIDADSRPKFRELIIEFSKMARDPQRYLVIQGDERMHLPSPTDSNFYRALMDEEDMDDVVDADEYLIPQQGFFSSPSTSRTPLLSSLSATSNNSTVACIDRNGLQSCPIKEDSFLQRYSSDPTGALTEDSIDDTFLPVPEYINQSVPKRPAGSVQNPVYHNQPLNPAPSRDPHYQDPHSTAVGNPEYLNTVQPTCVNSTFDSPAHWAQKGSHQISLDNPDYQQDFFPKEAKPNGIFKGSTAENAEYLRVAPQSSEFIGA
Method in brief: as §1

EGFR(L747-T751del, Sins) = EGFR(L747-T751del, Sins) (Homo sapiens, UniProt P00533, DEL747-750/T751S); details: read-out: % control
Sequence of EGFR(L747-T751del, Sins) (P00533 with tags, fused parts or gaps DEL747-750/T751S limits assumed): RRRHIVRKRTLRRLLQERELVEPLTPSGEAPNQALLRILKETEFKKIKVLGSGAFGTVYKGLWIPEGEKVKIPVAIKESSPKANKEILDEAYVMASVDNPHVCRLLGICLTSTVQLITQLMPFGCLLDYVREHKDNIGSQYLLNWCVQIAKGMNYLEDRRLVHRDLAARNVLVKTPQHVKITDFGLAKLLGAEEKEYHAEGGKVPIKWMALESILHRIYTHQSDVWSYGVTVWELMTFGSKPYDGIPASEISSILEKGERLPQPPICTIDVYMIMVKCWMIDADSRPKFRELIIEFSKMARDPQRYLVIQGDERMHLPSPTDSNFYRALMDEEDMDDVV
Method in brief: as §1

LIMK2 = LIMK2 (Homo sapiens, UniProt P53671); details: LIMK2, 1 μM; read-out: % control
Sequence of LIMK2 (P53671 whole entry): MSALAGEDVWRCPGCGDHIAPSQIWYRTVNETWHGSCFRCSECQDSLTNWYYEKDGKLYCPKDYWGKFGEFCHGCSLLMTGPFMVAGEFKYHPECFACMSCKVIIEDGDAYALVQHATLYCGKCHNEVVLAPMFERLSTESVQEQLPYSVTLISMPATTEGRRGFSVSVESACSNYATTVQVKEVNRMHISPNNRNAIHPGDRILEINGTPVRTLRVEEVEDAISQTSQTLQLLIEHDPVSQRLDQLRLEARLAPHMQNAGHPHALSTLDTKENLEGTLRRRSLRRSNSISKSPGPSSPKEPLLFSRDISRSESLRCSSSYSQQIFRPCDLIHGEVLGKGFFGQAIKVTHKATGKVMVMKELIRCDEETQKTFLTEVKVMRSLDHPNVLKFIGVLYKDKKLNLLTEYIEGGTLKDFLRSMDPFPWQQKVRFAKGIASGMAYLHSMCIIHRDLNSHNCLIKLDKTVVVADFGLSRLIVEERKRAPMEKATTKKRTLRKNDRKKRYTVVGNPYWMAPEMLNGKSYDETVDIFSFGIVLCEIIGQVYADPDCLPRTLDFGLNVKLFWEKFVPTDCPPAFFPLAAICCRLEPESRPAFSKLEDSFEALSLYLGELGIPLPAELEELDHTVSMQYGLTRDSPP
Method in brief: as §1

MAP3K4 = MAP3K4 (Homo sapiens, UniProt Q9Y6R4); details: MAP3K4, 1 μM; read-out: % control
Method in brief: as §1

MKNK2 = MKNK2 (Homo sapiens, UniProt Q9HBH9); details: MKNK2, 1 μM; read-out: % control
Method in brief: as §1

PAK6 = PAK6 (Homo sapiens, UniProt Q9NQU5); details: PAK6, 1 μM; read-out: % control
Sequence of PAK6 (Q9NQU5 whole entry): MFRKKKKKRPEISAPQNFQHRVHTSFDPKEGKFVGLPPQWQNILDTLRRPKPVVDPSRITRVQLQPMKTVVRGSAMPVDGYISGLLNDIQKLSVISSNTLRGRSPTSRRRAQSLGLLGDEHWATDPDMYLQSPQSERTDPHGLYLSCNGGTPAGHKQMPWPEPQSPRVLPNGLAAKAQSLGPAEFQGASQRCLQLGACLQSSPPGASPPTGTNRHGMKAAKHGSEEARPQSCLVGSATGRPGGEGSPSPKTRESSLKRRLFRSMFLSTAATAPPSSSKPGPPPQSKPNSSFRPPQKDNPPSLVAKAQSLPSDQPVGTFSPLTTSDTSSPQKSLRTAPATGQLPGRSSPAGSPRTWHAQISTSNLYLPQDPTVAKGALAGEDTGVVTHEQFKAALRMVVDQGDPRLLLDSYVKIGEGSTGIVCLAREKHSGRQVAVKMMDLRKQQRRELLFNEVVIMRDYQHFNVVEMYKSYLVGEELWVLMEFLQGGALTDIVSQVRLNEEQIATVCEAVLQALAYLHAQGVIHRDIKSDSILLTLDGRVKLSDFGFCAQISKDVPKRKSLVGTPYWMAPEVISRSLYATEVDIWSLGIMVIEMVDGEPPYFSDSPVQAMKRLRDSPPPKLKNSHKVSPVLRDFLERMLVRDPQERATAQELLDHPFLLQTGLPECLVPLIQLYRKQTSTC
Method in brief: as §1

TRKA = TRKA (Homo sapiens, UniProt P04629); details: read-out: % control
Sequence of TRKA (P04629 33-796): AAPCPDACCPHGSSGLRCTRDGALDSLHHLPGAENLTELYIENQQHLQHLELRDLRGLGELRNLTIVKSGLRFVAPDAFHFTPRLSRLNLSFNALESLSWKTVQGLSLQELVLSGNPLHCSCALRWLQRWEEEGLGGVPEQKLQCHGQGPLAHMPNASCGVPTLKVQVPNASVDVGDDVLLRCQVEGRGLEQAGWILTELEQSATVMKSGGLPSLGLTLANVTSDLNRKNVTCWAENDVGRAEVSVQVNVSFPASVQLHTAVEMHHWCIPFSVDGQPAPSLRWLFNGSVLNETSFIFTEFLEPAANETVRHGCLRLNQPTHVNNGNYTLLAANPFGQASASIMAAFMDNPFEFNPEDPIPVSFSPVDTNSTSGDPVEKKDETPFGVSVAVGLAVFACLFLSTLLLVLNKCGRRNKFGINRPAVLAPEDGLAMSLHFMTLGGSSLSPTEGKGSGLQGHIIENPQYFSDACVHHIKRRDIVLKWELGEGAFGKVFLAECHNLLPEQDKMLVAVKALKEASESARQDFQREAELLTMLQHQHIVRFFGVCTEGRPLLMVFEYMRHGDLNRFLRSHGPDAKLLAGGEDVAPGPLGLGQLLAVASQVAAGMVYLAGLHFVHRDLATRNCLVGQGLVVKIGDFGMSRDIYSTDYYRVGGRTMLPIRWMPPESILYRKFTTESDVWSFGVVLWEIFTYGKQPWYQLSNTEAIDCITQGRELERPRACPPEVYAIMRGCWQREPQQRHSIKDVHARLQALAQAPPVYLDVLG
Method in brief: as §1

TXK = biological target: T4, TXK (Homo sapiens, UniProt P42681); details: read-out: % control
T4 sequence (P42681 1-527): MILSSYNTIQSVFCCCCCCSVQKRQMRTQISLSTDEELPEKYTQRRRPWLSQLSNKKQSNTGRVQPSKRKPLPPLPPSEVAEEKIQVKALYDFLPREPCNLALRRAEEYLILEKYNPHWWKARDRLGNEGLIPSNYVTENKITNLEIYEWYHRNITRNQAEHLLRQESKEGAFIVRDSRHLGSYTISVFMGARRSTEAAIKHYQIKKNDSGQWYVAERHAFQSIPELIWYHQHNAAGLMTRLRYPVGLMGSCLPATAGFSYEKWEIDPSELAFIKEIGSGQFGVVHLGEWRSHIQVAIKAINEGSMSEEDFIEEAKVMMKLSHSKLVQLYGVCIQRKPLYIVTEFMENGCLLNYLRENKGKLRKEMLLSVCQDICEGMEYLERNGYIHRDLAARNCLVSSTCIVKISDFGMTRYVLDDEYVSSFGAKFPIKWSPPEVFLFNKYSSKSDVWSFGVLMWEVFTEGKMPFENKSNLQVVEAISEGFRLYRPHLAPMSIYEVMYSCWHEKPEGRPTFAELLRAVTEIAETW
Method in brief: as §1

[3] = biological target: T5, TYK2(JH1domain-catalytic) (Homo sapiens, UniProt P29597); details: read-out: % control
T5 construct: tyrosine kinase 2 (TYK2)(JH1domain-catalytic)
T5 sequence (P29597 897-1176 limits assumed): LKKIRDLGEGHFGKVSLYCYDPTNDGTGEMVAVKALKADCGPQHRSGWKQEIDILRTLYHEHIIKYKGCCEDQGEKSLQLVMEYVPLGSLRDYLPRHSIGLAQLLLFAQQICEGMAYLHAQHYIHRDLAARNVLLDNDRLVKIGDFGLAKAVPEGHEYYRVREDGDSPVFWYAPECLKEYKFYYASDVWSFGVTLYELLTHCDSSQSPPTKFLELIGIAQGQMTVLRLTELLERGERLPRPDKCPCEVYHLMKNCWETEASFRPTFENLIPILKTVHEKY
Method in brief: as §1

YANK1 = YANK1 (Homo sapiens, UniProt Q8WU08); details: YANK1, 1 μM; read-out: % control
Sequence of YANK1 (Q8WU08 whole entry): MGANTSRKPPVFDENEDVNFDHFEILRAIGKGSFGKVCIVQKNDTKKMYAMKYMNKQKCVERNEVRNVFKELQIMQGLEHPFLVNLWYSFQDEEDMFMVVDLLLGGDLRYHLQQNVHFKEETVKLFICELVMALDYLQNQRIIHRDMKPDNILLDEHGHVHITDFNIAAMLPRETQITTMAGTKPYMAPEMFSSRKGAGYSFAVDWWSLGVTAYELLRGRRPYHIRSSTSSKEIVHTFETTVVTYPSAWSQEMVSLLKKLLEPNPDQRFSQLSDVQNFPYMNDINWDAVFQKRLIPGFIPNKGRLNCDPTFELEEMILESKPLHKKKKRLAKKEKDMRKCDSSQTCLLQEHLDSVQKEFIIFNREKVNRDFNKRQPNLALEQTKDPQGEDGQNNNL
Method in brief: as §1

Structure (SMILES)	remaining binding at 1 µM [1] [%]	remaining binding at 1 µM (ACVR1) [%]	remaining binding at 1 µM (AKT2) [%]	remaining binding at 1 µM (CDK7) [%]	remaining binding at 1 µM (CSNK1E) [%]	remaining binding at 1 µM (CSNK1G2) [%]	remaining binding at 1 µM [2] [%]	remaining binding at 1 µM (EGFR(L747-T751del, Sins)) [%]	remaining binding at 1 µM (LIMK2) [%]	remaining binding at 1 µM (MAP3K4) [%]	remaining binding at 1 µM (MKNK2) [%]	remaining binding at 1 µM (PAK6) [%]	remaining binding at 1 µM (TRKA) [%]	remaining binding at 1 µM (TXK) [%]	remaining binding at 1 µM [3] [%]	remaining binding at 1 µM (YANK1) [%]
CNc1c(-c2cnn([C@H]3CCN(C(C)=O)C[C@@H]3F)c2)cnc2[nH]cc(Cl)c12 [Compound 77, 1-((3S,4S)-4-(4-(3-chloro-4-(methylamino)-1H-pyrrolo[2,3-b]pyridin-5-yl)-1H-pyrazol-1-yl)-3-fluoropiperidin-1-yl)ethan-1-one]	81	100	100	94	68	81	100	88	97	91	56	99	0.65	81	15	100
CNc1c(-c2ccc(C(=O)N3CCC(N4CCOCC4)CC3)cc2)cnc2[nH]cc(Cl)c12 [Compound 96, (4-(3-chloro-4-(methylamino)-1H-pyrrolo[2,3-b]pyridin-5-yl)phenyl)(4-morpholinopiperidin-1-yl)methanone]	100	81	100	90	17	93	100	76	100	68	22	100	11	81	29	100
O=C(c1ccc(-c2cnc3[nH]cc(Cl)c3c2NC2CCCC2)cc1)N1CCC(N2CCOCC2)CC1 [Compound 101, (4-(3-chloro-4-(cyclopentylamino)-1H-pyrrolo[2,3-b]pyridin-5-yl)phenyl)(4-morpholinopiperidin-1-yl)methanone]	100	100	84	93	81	73	88	100	99	71	94	99	49	84	100	100
